From publication PMC11819763, “Activity of Potassium Channel BmK-NSPK Inhibitor Regulated by Basic Amino Acid Residues: Novel Insight into the Diverse Peptide Pharmacology” (Molecules, 2025) come the findings set out here.

The structures appear in SMILES notation. Positions of bridges follow the written chain, without caps; N, C: chain ends. Residues, ends and D or L forms follow the SMILES beside them.

The target of one assay is T1, hKv1.3 channel (Homo sapiens, UniProt P22001).
T1 construct: expressed in transfected cells; host or cells: HEK293T cells, co-transfected with pEGFP-N1
The assay can be described thus: Whole-cell patch clamp, hKv1.3 channel currents in HEK293T cells. The class given is cell-based. The conditions noted are these: from IC50 values on hKv1.3 channel. The text has this:
In order to verify the differential pharmacological activities between BmK-NSPK, MeuKTX, KTX-2 and KTX-3, their recombinant peptides were produced according to our previous procedure. […] Then, MALDI-TOF-MS was further used to analyze BmK-NSPK. The determined molecular mass was […], which well corresponds to its calculated value of 3659.8 Da. The circular dichroism (CD) spectra also indicated the overall similarity to the secondary structures between BmK-NSPK, MeuKTX, KTX-2 and KTX-3 peptides. […] Subsequently, the patch clamp technique was used to characterize the pharmacological activities of BmK-NSPK, MeuKTX, KTX-2 and KTX-3 peptides according to our previously described procedure. […]
In a 5% CO2 incubator at 37 °C, HEK293T cells were cultured in DMEM medium (Gibco, Grand Island, NY, USA) supplemented with 10% fetal bovine serum and 1% penicillin/streptomycin. […] After one day of transfection, the potassium currents were recorded, and the positive cells were selected based on the presence of GFP fluorescence.
Whole-cell current measurement and data acquisition were performed using an EPC-10 patch-clamp amplifier controlled by Pulse (HEKA Elektronik, Lambrecht, Germany). The potassium currents were recorded according to the recording protocol for the Kv1 channel, as described in previously published references. […]
(The patch-clamp technique gives a direct electrical read-out from membranes.)

For another assay, the system named is hKv1.1 channel. The assay can be described thus: Whole-cell patch clamp, hKv1.1 channel currents. It is filed as cell-based, human. The conditions noted are these: 1 μM peptide, mean ± SE, n ≥ 3, SEM. The text has this: (§1) The pRc/CMV-hKv1.3 was kindly provided by Professor Stephan Grissmer (University of Ulm, Ulm, Germany) and Professor Olaf Pongs (Zentrum für Molekulare Neurobiologie der Universität Hamburg, Hamburg, Germany). The cDNAs encoding hKv1.1 and hKv1.2 (from Professor Stephan Grissmer, University of Ulm, Ulm, Germany) were subcloned into the vector pIRES2-EGFP (TaKaRa Clontech, Mountain View, CA, USA). The cDNAs encoding hKv1.6 were subcloned into the vector pcDNA 3.1(+) (TaKaRa Clontech, Mountain View, CA, USA). A QuikChange Site-Directed Mutagenesis Kit (Stratagene, La Jolla, CA, USA) was used to produce the mutants based on the wild-type hKv1.3 channel plasmids. All plasmids and their mutants were verified by DNA sequencing before the expression. The three channel chimeras were, respectively, named by hKv1.3-M1 (425DPTSGFS432 → 425ERESQFP432), hKv1.3-M2 (452HPV456 → 452VPT456) and hKv1.3-M3 (425DPTSGFS432 → 425ERESQFP432, 452HPV456 → 452VPT456).
(§2) In a 5% CO2 incubator at 37 °C, HEK293T cells were cultured in DMEM medium (Gibco, Grand Island, NY, USA) supplemented with 10% fetal bovine serum and 1% penicillin/streptomycin. Potassium channel plasmids and pEGFP-N1 were co-transfected into the HEK293 cells using the ExFect Transfection Reagent (Vazyme, Nanjin, China). After one day of transfection, the potassium currents were recorded, and the positive cells were selected based on the presence of GFP fluorescence.
(§3) Whole-cell current measurement and data acquisition were performed using an EPC-10 patch-clamp amplifier controlled by Pulse (HEKA Elektronik, Lambrecht, Germany). The potassium currents were recorded according to the recording protocol for the Kv1 channel, as described in previously published references. Peptides were dissolved in an external solution containing 0.01% BSA for electrophysiological experiments. […]

The test system of the next assay is hKv1.2 channel. The assay can be described thus: Whole-cell patch clamp, hKv1.2 channel currents. The conditions noted are these: 1 μM peptide, mean ± SE, n ≥ 3, SEM. It is filed as cell-based, human.
Source text: as §1, §2, §3

The subject of the next assay is hKv1.6 channel. The assay can be described thus: Whole-cell patch clamp, hKv1.6 channel currents. It is filed as cell-based, human. The settings on record: 1 μM peptide, mean ± SE, n ≥ 3, SEM.
Source text: as §1, §2, §3

In assay [1] the test system is hKv1.3-M1 channel (turret domain of hKv1.3 substituted by hKv1.2 region). The assay can be described thus: Whole-cell patch clamp, chimeric hKv1.3-M1 channel currents. The class given is cell-based, human. The settings on record: mean ± SE, n ≥ 3, SEM. The procedure:
In order to further investigate the effect of basic residue number on BmK-NSPK pharmacology, the activities of BmK-NSPK analogs were also tested on the Kv1.3 channel chimeras in this work. […] Based on the weak inhibition potencies of BmK-NSPK-7K and BmK-NSPK-8K towards hKv1.2 channel (Figure 5C,D), the work first constructed the chimeric hKv1.3-M1, in which the turret domain of hKv1.3 channel was substituted by the equivalent region of hKv1.2 channel (Figure 6A). Pharmacological experiments with 100 nM and 1 μM MeuKTX were able to inhibit 45.7 ± 7.9% and 82.8 ± 6.1% of hKv1.3-M1 channel currents, respectively (Figure 6B).
as §1, §2
(§4) Whole-cell current measurement and data acquisition were performed using an EPC-10 patch-clamp amplifier controlled by Pulse (HEKA Elektronik, Lambrecht, Germany). The potassium currents were recorded according to the recording protocol for the Kv1 channel, as described in previously published references. Peptides were dissolved in an external solution containing 0.01% BSA for electrophysiological experiments. The patch pipette solution contained 140 mM KF (Sigma, St. Louis, MC, USA), 2 mM MgCl2 (Sinopharm Chemical Reagent Co., Ltd., Shanghai, China), 1 mM EGTA (Sigma) and 10 mM HEPES (neoFroxx, Einhausen, Hessen, Germany) (pH adjusted to 7.4 with KOH (Sinopharm Chemical Reagent Co., Ltd., Shanghai, China)), and the bath solution contained 4.5 mM KCl, 160 Mm NaCl (Sinopharm Chemical Reagent Co., Ltd., Shanghai, China), 5 mM HEPES, 2 mM CaCl2 (Sinopharm Chemical Reagent Co., Ltd., Shanghai, China) and 1 mM MgCl2 (pH adjusted to 7.4 with NaOH (Sinopharm Chemical Reagent Co., Ltd., Shanghai, China)).
(§5) Graphing and data analysis were conducted using GraphPad Prism software (Version 8.0, San Diego, CA, USA), ClampFit software (version 10.2, Molecular Devices, Sunnyvale, CA, USA), and SigmaPlot software (version 12.0, IBM SPSS, Chicago, IL, USA). The dose–response relationship between the channel current and peptide inhibition was modeled by the modified Hill equation: Ipeptide/Icontrol = 1/{1 + [peptide]/IC50}, where Ipeptide represents the potassium current under peptide inhibition, Icontrol represents the peak current, IC50 is the half-maximal inhibition concentration and [peptide] represents the peptide concentration. The IC50 was obtained by fitting the Hill equation. Results are presented as mean ± SE, with each sample tested on at least three cells (n ≥ 3).

The subject of assay [2] is hKv1.3-M2 channel (filter region of hKv1.3 substituted by hKv1.2 region). The assay can be described thus: Whole-cell patch clamp, chimeric hKv1.3-M2 channel currents. It is filed as cell-based, human. The settings on record: mean ± SE, n ≥ 3, SEM. As for the experimental part:
Apart from the chimeric hKv1.3-M1, this work further constructed the chimeric hKv1.3-M2 channel, in which the filter region of hKv1.3 channel was substituted by the equivalent region of hKv1.2 channel (Figure 6A). Pharmacological experiments 100 nM and 1 μM MeuKTX were able to inhibit 78.3 ± 4.9% and 95.9 ± 1.3% of hKv1.3-M2 channel currents, respectively, which indicated the minor effect of channel filter region on MeuKTX binding (Figure 6B). However, more significant effects were also observed for BmK-NSPK analogs with different numbers of basic residues.
as §1, §2, §4, §5

Assay [3] has as its system hKv1.3-M3 channel (turret, pore helix and filter region of hKv1.3 replaced by hKv1.2 regions). The assay can be described thus: Whole-cell patch clamp, chimeric hKv1.3-M3 channel currents. The settings on record: mean ± SE, n ≥ 3, SEM. The class given is cell-based, human.
Source text: as §1, §2, §4, §5

T1 sequence (P22001 whole entry): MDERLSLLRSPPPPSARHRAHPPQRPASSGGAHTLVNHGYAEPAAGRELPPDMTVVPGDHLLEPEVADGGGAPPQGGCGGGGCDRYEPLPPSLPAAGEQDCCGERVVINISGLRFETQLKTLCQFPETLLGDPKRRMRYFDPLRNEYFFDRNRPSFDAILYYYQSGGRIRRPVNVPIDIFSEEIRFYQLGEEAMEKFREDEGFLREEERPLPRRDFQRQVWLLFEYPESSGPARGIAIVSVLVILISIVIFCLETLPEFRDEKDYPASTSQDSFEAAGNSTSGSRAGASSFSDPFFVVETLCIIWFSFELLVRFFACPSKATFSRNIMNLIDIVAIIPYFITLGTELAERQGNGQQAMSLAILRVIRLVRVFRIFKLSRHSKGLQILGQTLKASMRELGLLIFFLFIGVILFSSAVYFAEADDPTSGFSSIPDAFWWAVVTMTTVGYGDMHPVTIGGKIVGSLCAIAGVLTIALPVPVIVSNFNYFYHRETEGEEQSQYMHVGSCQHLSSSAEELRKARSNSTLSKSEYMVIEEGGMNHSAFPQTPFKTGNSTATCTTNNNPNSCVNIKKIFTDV

With `CSCC[C@@H]1NC(=O)CNC(=O)[C@H](C)NC(=O)[C@H](CC(=O)O)NC(=O)[C@H](CCCCN)NC(=O)[C@@H]2CSSC[C@@H](C(=O)N[C@H](C(=O)N3CCC[C@H]3C(=O)N[C@@H](CCCCN)C(=O)NCC(=O)O)[C@@H](C)O)NC(=O)[C@H](CC(=O)O)NC(=O)[C@@H]3CSSC[C@H](NC(=O)[C@H](CCC(N)=O)NC(=O)CNC(=O)[C@H](CO)NC(=O)[C@H](Cc4c[nH]cn4)NC(=O)[C@H](CCCCN)NC(=O)[C@@H](NC(=O)[C@H](CCCCN)NC(=O)[C@@H](NC(=O)[C@H](CC(N)=O)NC(=O)[C@H](CCCCN)NC(=O)CNC(=O)[C@@H](N)C(C)C)C(C)C)CSSC[C@H](NC(=O)[C@H](CCCCN)NC(=O)CNC(=O)[C@H](Cc4ccccc4)NC(=O)[C@H](CCCNC(=N)N)NC1=O)C(=O)N[C@@H](CCSC)C(=O)N[C@@H](CC(N)=O)C(=O)NCC(=O)N[C@@H](CCCCN)C(=O)N3)C(=O)N[C@@H](CC(C)C)C(=O)N[C@@H](CCCCN)C(=O)N1CCC[C@H]1C(=O)N2` [BmK-NSPK-8K] (H-VGKNVKCKHSGQCLKPCKDAGMRFGKCMNGKCDCTPKG-OH; disulfide 7-27, 13-32, 17-34 (inferred); N-terminus and C-terminus assumed), the “fold decreased activity on hKv1.3 compared with BmK-NSPK-7K” value at hKv1.3 channel is reported as ~ 10 fold. Besides, in the assay on hKv1.1 channel, the “inhibition of hKv1.1 channel currents” value was determined as 84.3 ± 1.8%. Also, the “inhibition of hKv1.2 channel currents” value in the assay with hKv1.2 channel is given as 12.3 ± 1.8%. Also, the “inhibition of hKv1.6 channel currents” value in the assay on hKv1.6 channel was found to be 34.1 ± 4.8%. Further, the “inhibition of hKv1.3-M1 channel currents” value was 4.5 ± 1.2% in assay [1] (100 nM peptide) and 27.7 ± 4.0% in assay [1] (1 μM peptide). In addition, the entries for the “inhibition of hKv1.3-M2 channel currents” value in assay [2] (100 nM peptide) and in assay [2] (1 μM peptide) were 8.8 ± 2.6% and 51.3 ± 1.5%, respectively. Further, the “inhibition of hKv1.3-M3 channel currents” value is reported as 2.7 ± 0.92% in assay [3] (100 nM peptide) and 5.1± 1.4% in assay [3] (1 μM peptide).
